Counter-ions that a name gives are not always drawn. Like-named read-outs stand apart in the source and are kept apart here.
Experiments:
[1] = test system: HCV-replicon RNA-containing Huh7 cells (HCV RNA); assay: HCV replicon assay: HCV RNA quantified by Q-RT-PCR after 96 h of compound exposure; assay type: cell-based, hepatitis C virus (HCV); conditions: for EC90: read-out: Corrected HCV RNA EC90; for log reduction at 10 µM: read-out: Corrected HCV RNA log10 reduction at 10 μM; for specific inhibition of the replicon: RNR inhibitors tested
Protocol: (§1) Incubation times differed according to the type of experiment.

[2] = test system: rRNA in HCV-replicon RNA-containing Huh7 cells; assay: rRNA levels in HCV replicon cells (cellular toxicity), Q-RT-PCR after 96 h; conditions: 100 μM
Protocol: HCV replicon cells were seeded in the presence of test compound at approximately 10^3 cells per well in a 96-well plate and incubated for 96 hours. rRNA and HCV RNA were quantified by Q-RT-PCR. ●: HCV RNA levels; ◯: rRNA levels; ▾: HCV RNA levels after correction (=subtraction of rRNA) for cellular toxicity. […] The plots shown are the mean results of at least three independent experiments. EC90 values as given in Table 1 are read from the HCV curves corrected for cellular toxicity.
HCV-replicon RNA-containing Huh7 cells (Clone A cells; Apath, LLC, St. Louis, Mo.) were kept in exponential growth in DMEM media (high glucose, no pyruvate) containing 10% fetal bovine serum, 1× non-essential amino acids (100 units/ml), penicillin-streptomycin (100 μg/ml), glutamine (0.292 mg/ml), and G418 (1,000 μg/ml). Antiviral assays were performed in the same medium without G418. […] Cells were seeded in a 6-well plate at 10^5 cells per well. Candidate antiviral compounds were tested as described (Stuyver, et al. “A ribonucleoside analogue that blocks the replication of bovine viral diarrhea and hepatitis C viruses in culture” Antimicrob. Agents Chemother., January 2003, 47 (1), 244-254). Incubation times differed according to the type of experiment. At the end of the incubation step, cells were counted using the trypan-blue exclusion method, and total cellular RNA was isolated (Rneasy 96 kit, Qiagen, CA). Replicon RNA and an internal control (TaqMan Ribosomal RNA Control Reagents, Applied Biosystems, CA) were amplified in a single-step, multiplex RT-PCR protocol, as recommended by the manufacturer and as described (Stuyver, et al. “A ribonucleoside analogue that blocks the replication of bovine viral diarrhea and hepatitis C viruses in culture” Antimicrob. Agents Chemother., January 2003, 47 (1), 244-254).
Replicon cells were incubated in the absence or presence of these anti-metabolites for 96 hours, after which intracellular rRNA and HCV RNA levels were quantified (Table 1).

[3] = test system: HCV replicon RNA in Huh7 cells; assay: HCV RNA levels in replicon cells over a 7-day period; assay type: cell-based, hepatitis C virus (HCV); conditions: 20 μM, 7-day period
[4] = test system: HCV replicon RNA in Huh7 cells; assay: Reversal studies with natural nucleosides: HCV RNA; assay type: cell-based, hepatitis C virus (HCV); conditions: 100 μM, no nucleoside
Protocol: as §1
(§2) Cells were incubated with the test compound and, simultaneously, the natural ribo- or 2′-deoxy nucleosides (adenosine, guanosine (G), cytidine (C), uridine (U), 2′-deoxycytidine (dC), 2′-deoxyuridine, thymidine, 2′-deoxyguanosine (dG), and 2′-deoxyadenosine) (Table 2).

[5] = test system: rRNA in HCV replicon Huh7 cells; assay: Reversal studies with natural nucleosides: rRNA; assay type: cell-based; conditions: 100 μM, no nucleoside
Protocol: as §1, §2

[6] = test system: HCV replicon-containing Huh7 cell line; assay: Dynamics of replicon cell growth (cell count) over a 7-day period; conditions: 20 μM, 7-day period
[7] = 100 μM, 96 h, corrected by subtraction of rRNA
[8] = Hepatitis C virus, Huh-7, 96 h, read from HCV curves corrected for rRNA reduction
[9] = Hepatitis C virus, Huh-7, 96 h, read-out: Corrected HCV RNA log10 reduction at 100 μM
[10] = Hepatitis C virus, Huh-7, 10 μM, 96 h, corrected by subtraction of rRNA
[11] = Hepatitis C virus, Huh-7, 100 μM, 96 h, corrected by subtraction of rRNA, read-out: Corrected HCV RNA log10 reduction at 100 μM
[12] = Hepatitis C virus, Huh-7, 100 μM, 96 h, read-out: Log10 RNA reduction (100 μM) HCV
[13] = 10 μM, 96 h, corrected by subtraction of rRNA

Compound | Corrected HCV RNA log10 reduction at 100 μM [1, 7] [log10] | specific inhibition of the replicon [1] | Log10 RNA reduction (100 μM) rRNA [2] [log10] | EC90 [1, 8] [µM] | Corrected HCV RNA log10 reduction at 10 μM [1, 13] [log10] | other results
Nc1n[nH]c(N)n1 [Guanazole, guanazole] | 0.32 ± 0.08 | none | 0.07 ± 0.03 | – | – | Log10 RNA reduction (100 μM) HCV ([1]; 100 μM, 96 h): 0.25 ± 0.11 log10; EC90 ([1]; Hepatitis C virus, Huh-7, 96 h): > 100 µM; log reduction at 10 µM ([1]; Hepatitis C virus, Huh-7, 96 h): 0.05 ± 0.08
O=c1cnn([C@@H]2O[C@H](CO)[C@@H](O)[C@H]2O)c(=O)[nH]1 [6-aza uridine, 6-aza-uridine] | – | – | 0.61 ± 0.18 | > 100 | – | effect on cytoplasmic HCV RNA metabolism ([1]; replicon system): little effect
NC(=O)NO [Hydroxy Urea, hydroxy urea] | – | none | 0.25 ± 0.20 | > 100 | – | log reduction at 100 µM [1, 9]: -0.08 ± 0.16; log reduction at 10 µM [1, 10]: 0.06 ± 0.04
C[C@@]1(O)[C@H](O)[C@@H](CO)O[C@H]1n1cnc2c(N)ncnc21 [2′C—CH3-A, 2′-C-methyl-adenosine] | – | – | 2.96 ± 0.08 | < 1 | – | log reduction at 10 µM [1, 10]: 2.05; log reduction at 100 µM [1, 11]: -0.64 ± 0.18; log reduction at 100 µM [1, 12]: 2.32 ± 0.11; reducing the HCV RNA levels [3]: very potent; log10 reduction HCV [4]: 2.32 ± 0.11 log10; log10 reduction rRNA [5]: 2.96 ± 0.08 log10; effect on cell proliferation [6]: minimal
CN(Cc1cnc2nc(N)nc(N)c2n1)c1ccc(C(=O)N[C@@H](CCC(=O)O)C(=O)O)cc1 [Methotrexate, methotrexate] | 0.11 ± 0.09 | – | 0.07 ± 0.10 | > 100 | 0.15 ± 0.01 | –
O=c1[nH]c(=O)n([C@H]2C[C@H](O)[C@@H](CO)O2)cc1F [2′-deoxy-5FU, 2′-deoxy-5-fluorouridine] | – | – | 0.73 ± 0.35 | > 100 | 0.23 ± 0.05 | log reduction at 100 µM [1, 9]: 0.04 ± 0.25
COc1c(C)c2c(c(O)c1CCOP(=O)(O)CP(=O)(O)OC[C@H]1O[C@@H](n3cnc4c(N)ncnc43)[C@H](O)[C@@H]1O)C(=O)OC2 [Compound C2-MAD] | 0.08 ± 0.24 | – | 1.00 ± 0.15 | – | 0.36 ± 0.21 | Log10 RNA reduction (100 μM) HCV ([1]; 100 μM, 96 h): 1.09 ± 0.21 log10; EC90 ([1]; 96 h, read from HCV curves corrected for rRNA reduction): > 100 µM
CC(=O)N(O)CCCCCNC(=O)CCC(=O)N(O)CCCCCNC(=O)CCC(=O)N(O)CCCCCN [Deferoxamine, deferoxamine mesylate] | – | none | 0.92 ± 0.08 | > 100 | – | log reduction at 10 µM ([1]; Hepatitis C virus, Huh-7, 96 h): 0.17 ± 0.11; log reduction at 100 µM [1, 11]: 0.08 ± 0.03; log reduction at 100 µM [1, 12]: 1 ± 0.06
